What was measured:
Settings in all cases: 72 h
Caco-2 [1] = assay: drug sensitivity score (DSS) for viability; higher = more toxic; extreme values may be limits of the assay
U2OS [2] = assay: as above
Vero E6 [3] = assay: as above
HepG2 [4] = assay: as above
Calu-3 [5] = assay: as above
Caco-2 [6] = assay: relative viability EC50 (midpoint between 100% and the lowest measured viability); higher = less toxic
U2OS [7] = assay: as above
Vero E6 [8] = assay: as above
HepG2 [9] = assay: as above
Calu-3 [10] = assay: as above
Caco-2 [11] = assay: cell viability relative to DMSO; higher = less toxic
U2OS [12] = assay: as above
Vero E6 [13] = assay: as above
HepG2 [14] = assay: as above
Calu-3 [15] = assay: as above

| SMILES | drug sensitivity score (Caco-2 [1]) | drug sensitivity score (U2OS [2]) | drug sensitivity score (Vero E6 [3]) | drug sensitivity score (HepG2 [4]) | drug sensitivity score (Calu-3 [5]) | relative viability EC50 (Caco-2 [6]) [µM] | relative viability EC50 (U2OS [7]) [µM] | relative viability EC50 (Vero E6 [8]) [µM] | relative viability EC50 (HepG2 [9]) [µM] | relative viability EC50 (Calu-3 [10]) [µM] | cell viability (Caco-2 [11]; 1 nM) [%] | cell viability (Caco-2 [11]; 10 nM) [%] | cell viability (Caco-2 [11]; 100 nM) [%] | cell viability (Caco-2 [11]; 1000 nM) [%] | cell viability (Caco-2 [11]; 10000 nM) [%] | cell viability (U2OS [12]; 1 nM) [%] | cell viability (U2OS [12]; 10 nM) [%] | cell viability (U2OS [12]; 100 nM) [%] | cell viability (U2OS [12]; 1000 nM) [%] | cell viability (U2OS [12]; 10000 nM) [%] | cell viability (Vero E6 [13]; 1 nM) [%] | cell viability (Vero E6 [13]; 10 nM) [%] | cell viability (Vero E6 [13]; 100 nM) [%] | cell viability (Vero E6 [13]; 1000 nM) [%] | cell viability (Vero E6 [13]; 10000 nM) [%] | cell viability (HepG2 [14]; 1 nM) [%] | cell viability (HepG2 [14]; 10 nM) [%] | cell viability (HepG2 [14]; 100 nM) [%] | cell viability (HepG2 [14]; 1000 nM) [%] | cell viability (HepG2 [14]; 10000 nM) [%] | cell viability (Calu-3 [15]; 1 nM) [%] | cell viability (Calu-3 [15]; 10 nM) [%] | cell viability (Calu-3 [15]; 100 nM) [%] | cell viability (Calu-3 [15]; 1000 nM) [%] | cell viability (Calu-3 [15]; 10000 nM) [%] |
| --- | --- | --- | --- | --- | --- | --- | --- | --- | --- | --- | --- | --- | --- | --- | --- | --- | --- | --- | --- | --- | --- | --- | --- | --- | --- | --- | --- | --- | --- | --- | --- | --- | --- | --- | --- |
| O=c1c(O[C@@H]2O[C@H](CO)[C@H](O)[C@H](O)[C@H]2O)c(-c2ccc(O)c(O)c2)oc2cc(O)cc(O)c12 [hyperin] | 0 | 0 | 0 | 0 | 0 | > 10 | > 10 | > 10 | > 10 | > 10 | 104 | 93.3 | 99 | 107 | 105 | 99.5 | 97.3 | 101 | 98.4 | 100 | 98 | 97.2 | 94 | 97.7 | 108 | 84.8 | 95.7 | 87.3 | 103 | 97.9 | 96.9 | 86.3 | 102 | 104 | 98.9 |
| CNC(=O)[C@H](Cc1c[nH]c2ccccc12)NC(=O)[C@@H](CC(=O)NO)CC(C)C [ilomastat] | 0 | 0 | 0 | 0 | 0 | > 10 | > 10 | > 10 | > 10 | > 10 | 94.1 | 104 | 102 | 96.6 | 102 | 97.6 | 98.2 | 85.8 | 102 | 84.7 | 97.4 | 97 | 95 | 93.2 | 88.7 | 107 | 90.5 | 104 | 90.5 | 103 | 102 | 98.6 | 107 | 97.3 | 90.4 |
| CS(=O)(=O)Oc1ccc2c(NC(N)=O)c(C(=O)c3ccc(Cl)cc3Cl)oc2c1 [lirimilast] | 0 | 0 | 0 | 0 | 0 | > 10 | > 10 | > 10 | > 10 | > 10 | 98.5 | 96.3 | 102 | 108 | 110 | 95.5 | 99 | 97.9 | 107 | 102 | 98.6 | 94.7 | 97 | 84.4 | 99.6 | 94.3 | 89.7 | 106 | 94.7 | 95.9 | 98.8 | 106 | 91.4 | 101 | 104 |
| O=C(O)c1ccccc1Nc1cc(Cl)ccc1C(=O)O [lobenzarit] | 0 | 0 | 0 | 0 | 0.2 | > 10 | > 10 | > 10 | > 10 | > 10 | 95.9 | 101 | 99.1 | 93.1 | 98.2 | 91.3 | 96 | 101 | 96.9 | 104 | 97.7 | 97.3 | 86 | 87.4 | 114 | 106 | 109 | 95.6 | 103 | 105 | 111 | 88.1 | 108 | 95.2 | 90.3 |
| NCCCC[C@H](NC(=O)[C@@H]1CCCN1C(=O)[C@@H]1CSSC[C@H](N)C(=O)N[C@@H](Cc2ccc(O)cc2)C(=O)N[C@@H](Cc2ccccc2)C(=O)N[C@@H](CCC(N)=O)C(=O)N[C@@H](CC(N)=O)C(=O)N1)C(=O)NCC(N)=O [lypressin] | 0 | 0 | 0 | 0 | 0 | > 10 | > 10 | > 10 | > 10 | > 10 | 98.6 | 99.6 | 97.8 | 102 | 101 | 99.7 | 105 | 97.5 | 98.8 | 101 | 97.4 | 101 | 95.4 | 99.1 | 100 | 105 | 97.9 | 97.8 | 100 | 100 | 95.6 | 98.1 | 103 | 93.4 | 92.2 |
| C[N+]1(C)CCCC(OC(=O)C(O)(c2ccccc2)c2ccccc2)C1 (stereo not given) [mepenzolate] | 0 | 0 | 0 | 0 | 0 | > 10 | > 10 | > 10 | > 10 | > 10 | 91.3 | 87.1 | 96.6 | 101 | 101 | 99.7 | 101 | 96.6 | 101 | 96.9 | 94.9 | 105 | 97.5 | 99.6 | 99.8 | 107 | 98.1 | 104 | 91.9 | 94.3 | 105 | 103 | 96.1 | 110 | 94.5 |
| CN(C)C(=O)Oc1ccc[n+](C)c1 [mestinon] | 0 | 0 | 0 | 0 | 0 | > 10 | > 10 | > 10 | > 10 | > 10 | 91.5 | 95.9 | 107 | 99.8 | 99.1 | 104 | 102 | 106 | 98.6 | 104 | 99.8 | 108 | 102 | 104 | 93.5 | 95.1 | 93 | 101 | 91.2 | 96.3 | 96.5 | 95.1 | 102 | 93.7 | 94.5 |
| C[N+]1(C)[C@@H]2CC[C@H]1C[C@@H](OC(=O)C(CO)c1ccccc1)C2 (stereo not given in full) [methylatropine-nitrate] | 0 | 0 | 0 | 0 | 0 | > 10 | > 10 | > 10 | > 10 | > 10 | 96.9 | 93.4 | 108 | 104 | 99.6 | 95.4 | 95.4 | 100 | 100 | 101 | 95.6 | 98.8 | 95.3 | 99.1 | 104 | 96.7 | 105 | 102 | 98.7 | 99.8 | 93 | 100 | 108 | 97.2 | 106 |
| Cc1c(NC(=O)c2cccnc2)c(=O)n(-c2ccccc2)n1C [nifenazone] | 0 | 0 | 0 | 0 | 0 | > 10 | > 10 | > 10 | > 10 | > 10 | 110 | 98.7 | 93.2 | 97.1 | 89.4 | 98.3 | 104 | 102 | 105 | 101 | 105 | 101 | 99.3 | 101 | 97.2 | 105 | 91.9 | 109 | 94.4 | 90.6 | 106 | 106 | 92.3 | 100 | 106 |
| O=C(O)c1cccnc1Nc1cccc(C(F)(F)F)c1 [niflumic-acid] | 0 | 0 | 0 | 0 | 0 | > 10 | > 10 | > 10 | > 10 | > 10 | 108 | 98.5 | 98.4 | 96.2 | 100 | 99.7 | 98 | 104 | 106 | 102 | 100 | 96 | 97.4 | 97.3 | 101 | 103 | 101 | 99.6 | 97.2 | 104 | 100 | 90.9 | 98.7 | 99.7 | 95.2 |
| COC(=O)C1=C(C#N)NC(C)=C(C(=O)OC(C)C)C1c1cccc([N+](=O)[O-])c1 (stereo not given) [nilvadipine] | 0 | 0 | 0 | 0 | 0 | > 10 | > 10 | > 10 | > 10 | > 10 | 96.1 | 84.7 | 92.7 | 94.1 | 96 | 96.6 | 98.4 | 97 | 96.7 | 104 | 95.9 | 93.6 | 100 | 97.9 | 109 | 108 | 98.6 | 109 | 96.1 | 95 | 90.9 | 101 | 90.8 | 97.5 | 120 |
| COC(=O)N[C@H](C(=O)N1CCC[C@H]1C(=O)Nc1ccc([C@@H]2CC[C@@H](c3ccc(NC(=O)[C@@H]4CCCN4C(=O)[C@@H](NC(=O)OC)C(C)C)cc3)N2c2ccc(C(C)(C)C)cc2)cc1)C(C)C [ombitasvir] | 0 | 0.3 | 0 | 0 | 0 | > 10 | > 10 | > 10 | > 10 | > 10 | 96 | 104 | 95.1 | 96.8 | 100 | 94.3 | 95.1 | 100 | 98 | 86.5 | 99.8 | 96.2 | 94.2 | 94.9 | 102 | 99.4 | 100 | 92.1 | 92.3 | 108 | 105 | 100 | 108 | 98.1 | 91.7 |
| COC(=O)[C@H](Cc1cccc(C(=N)N)c1)[C@@H](C)NC(=O)c1ccc(-c2cc[n+]([O-])cc2)cc1 [otamixaban] | 0 | 0 | 0 | 0 | 0 | > 10 | > 10 | > 10 | > 10 | > 10 | 104 | 104 | 101 | 99.2 | 104 | 99.1 | 95.3 | 98.3 | 97.8 | 104 | 103 | 101 | 94.1 | 97.9 | 96.3 | 89.3 | 103 | 98.6 | 102 | 96.7 | 88.9 | 92 | 90.5 | 94.4 | 105 |

From the supplement of paper PMC13380429
